Measured values taken from US9475798B2, “Azetidine estrogen receptor modulators and uses thereof” (Genentech, Inc., priority 2013, dated 2016).

How the values were obtained:
ER-α = molecular target: T1, ER-α (Homo sapiens, UniProt P03372); experiment: Breast Cancer Cell ER-α In-Cell Western Assay (SP1); assay type: cell-based; settings: MCF7 cells, 4 hours; 100-{100*[(100-% ER level of Example)/(100-% ER level of Fulvestrant)]}
T1 construct: endogenous in cells; host or cells: MCF7
T1 sequence (P03372 1-595): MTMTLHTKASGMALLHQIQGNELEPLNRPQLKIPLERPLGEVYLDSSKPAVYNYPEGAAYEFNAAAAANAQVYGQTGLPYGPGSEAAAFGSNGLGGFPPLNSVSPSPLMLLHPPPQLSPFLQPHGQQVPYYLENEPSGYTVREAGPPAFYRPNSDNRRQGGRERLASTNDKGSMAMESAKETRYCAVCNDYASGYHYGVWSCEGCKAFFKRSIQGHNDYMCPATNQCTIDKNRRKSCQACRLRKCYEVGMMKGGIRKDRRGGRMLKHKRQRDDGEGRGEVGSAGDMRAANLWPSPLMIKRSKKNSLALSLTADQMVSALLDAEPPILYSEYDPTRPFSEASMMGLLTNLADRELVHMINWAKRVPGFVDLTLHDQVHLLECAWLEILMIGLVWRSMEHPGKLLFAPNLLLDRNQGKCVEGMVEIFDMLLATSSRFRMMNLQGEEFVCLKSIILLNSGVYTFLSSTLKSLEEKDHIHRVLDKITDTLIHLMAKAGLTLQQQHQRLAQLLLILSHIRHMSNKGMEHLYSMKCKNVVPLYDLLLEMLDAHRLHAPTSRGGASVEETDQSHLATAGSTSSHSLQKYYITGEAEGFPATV
Procedure: MCF7 cells were trypsinized and washed twice in Phenol Red Free RPMI containing 5% Charcoal Dextran Stripped serum with 20 mM HEPES and NEAA, then adjusted to a concentration of 200,000 cells per mL with the same medium. […] At 4 hours post compound addition, the cells were fixed by adding 16 μL of 30% formalin to the 32 μL of cells and compound (10% formalin final concentration) for 20 minutes. Cells were then washed twice with PBS Tween 0.1% and then permeabilized in PBS 0.1% Triton (50 μl/well) for additional 15 minutes. The PBS 0.1% triton was decanted, and the cells were washed: LI-COR blocking buffer (50 μL/well) was added, the plate was spun at 3000 rpm, and then the blocking buffer was decanted. Additional LI-COR blocking buffer (50 μL/well) was added, and the cells were incubated overnight at 4° C. The blocking buffer was decanted, and the cells were incubated overnight at 4° C. with SP1 (Thermo Scientific) anti-ER rabbit monoclonal antibody diluted 1:1000 in LI-COR blocking buffer/0.1% Tween-20. Wells which were treated with blocking buffer with Tween but no antibody were used as a background control. Wells were washed twice with PBS Tween 0.1% to remove free SP1 antibodies, and the cells were incubated at room temp for 60-90 minutes in LI-COR goat anti-rabbit IRDye™ 800 CW (1:1000) and DRAQ5 DNA dye (1:10000 of 5 mM stock solution) diluted in LI-COR blocking buffer containing 0.1% Tween-20 and 0.01% SDS. Cells were then washed with 0.1% Tween-20/PBS three times. Plates were scanned on a LI-COR Odyssey infrared imaging system. Integrated intensities in the 800 nm channel and 700 nm channel were measured to determine levels of ER-α and DNA respectively. Percent ER levels were determined as follows: (Integrated intensity 800 nm sample/integrated intensity 700 nm sample)/(Integrated intensity 800 nm untreated cells/integrated intensity 700 nm untreated cells)×100=% ER-α levels.

MCF-7 cells = experiment: Breast Cancer Cell Viability Assay (MCF7, CellTiter-Glo); settings: for MCF7 Viability Assay: % Viability relative to Fulvestrant: 5 days, 100-{100*[(100-% viability of Example)/(100-% viability of Fulvestrant)]}; for IC50: read-out: MCF7 Viability Assay IC50, 5 days' compound exposure;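 as to all read-outs here: CellTiter-Glo luminescence read-out, background from cell-free medium subtracted, viability expressed against untreated cells, ten-point 1:5 compound dilution series spanning 10 to 0.000005 µM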

Row | ER-α In-Cell Western Assay (SP1): % ER-α remaining relative to Fulvestrant (ER-α) | IC50 (MCF-7 cells) | Compound | MCF7 Viability Assay: % Viability relative to Fulvestrant (MCF-7 cells)
1 | 1% | 0.41 nM | CC1=C(c2ccc(F)c(F)c2)C(c2ccc(OCCN3CC(CF)C3)cc2)Oc2ccc(O)cc21 (stereo not drawn) [Example 10, 3-(3,4-Difluorophenyl)-2-(4-(2-(3-(fluoromethyl)azetidin-1-yl)ethoxy)phenyl)-4-methyl-2H-chromen-6-ol] | 2%
2 | 2% | 0.53 nM | CC1=C(c2ccc(F)c(Cl)c2)C(c2ccc(OCCN3CC(CF)C3)cc2)Oc2ccc(O)cc21 (stereo not drawn) [Example 13, 3-(3-Chloro-4-fluorophenyl)-2-(4-(2-(3-(fluoromethyl)azetidin-1-yl)ethoxy)phenyl)-4-methyl-2H-chromen-6-ol] | 1%
3 | 1% | 0.71 nM | CC1=C(c2ccc(Cl)c(F)c2)C(c2ccc(OCCN3CC(CF)C3)cc2)Oc2ccc(O)cc21 (stereo not drawn) [Example 16, 3-(4-Chloro-3-fluorophenyl)-2-(4-(2-(3-(fluoromethyl)azetidin-1-yl)ethoxy)phenyl)-4-methyl-2H-chromen-6-ol] | 1%
4 | 0% | 0.42 nM | CC1=C(c2cc(F)c(F)c(F)c2)C(c2ccc(OCCN3CC(CF)C3)cc2)Oc2ccc(O)cc21 (stereo not drawn) [Example 19, 2-(4-(2-(3-(Fluoromethyl)azetidin-1-yl)ethoxy)phenyl)-4-methyl-3-(3,4,5-trifluorophenyl)-2H-chromen-6-ol] | 0%
5 | 8% | 12 nM | CC1=C(c2ccc(C(F)(F)F)cc2)C(c2ccc(OCCN3CC(CF)C3)cc2)Oc2ccc(O)cc21 (stereo not drawn) [Example 22, 2-(4-(2-(3-(Fluoromethyl)azetidin-1-yl)ethoxy)phenyl)-4-methyl-3-(4-(trifluoromethyl)phenyl)-2H-chromen-6-ol] | 6%
6 | 2% | 0.3 nM | CC1=C(c2ccc(F)cc2)C(c2ccc(OCCN3CC(CF)C3)cc2)Oc2cc(O)ccc21 (stereo not drawn) [Example 25, 2-(4-(2-(3-(Fluoromethyl)azetidin-1-yl)ethoxy)phenyl)-3-(4-fluorophenyl)-4-methyl-2H-chromen-7-ol] | 7%
7 | 3% | 0.8 nM | CC1=C(c2ccc(Cl)cc2)C(c2ccc(OCCN3CC(CF)C3)cc2)Oc2cc(O)ccc21 (stereo not drawn) [Example 28, 3-(4-Chlorophenyl)-2-(4-(2-(3-(fluoromethyl)azetidin-1-yl)ethoxy)phenyl)-4-methyl-2H-chromen-7-ol] | 6%
8 | 14% | 0.2 nM | CC1=C(c2cccc(O)c2)C(c2ccc(OCCN3CC(C)C3)cc2)Oc2ccc(O)cc21 (stereo not drawn) [Example 31, 3-(3-Hydroxyphenyl)-4-methyl-2-(4-(2-(3-methylazetidin-1-yl)ethoxy)phenyl)-2H-chromen-6-ol] | 13%
